According to US20240425502A1, “BICYCLIC HETEROAROMATIC COMPOUNDS AND THEIR USE AS PEST CONTROL AGENTS” (PI INDUSTRIES LTD., priority 2021, published 2024):

Experiments:
Format in all cases: in vivo
Myzus persicae = Myzus persicae leaf dip test (capsicum leaves, third instar nymphs); conditions: foliar, 72 h after release, dead and moribund combined, compared to untreated control, read-out: percent mortality
Bemisia tabaci = Bemisia tabaci leaf dip test (brinjal leaves, whitefly adults); conditions: foliar, 72 h after release, dead and moribund combined, compared to untreated control, read-out: percent mortality
Description: The leaf dip method was used for testing, wherein the required quantity of the compound was weighed and dissolved in a tube containing a solvent solution. The tube was put on a vortex at 2000 rpm for 90 min for proper mixing and then the mixture was diluted with a 0.01% Triton-X solution to the desired test concentration. Brinjal leaves were dipped in the compound solution for 10 seconds, shade dried for 20 min and then placed, with the abaxial side of the leaf up, on 4 ml of a 1% agar-agar solution in respective container caps. Known numbers of freshly emerged whitefly adults were collected, using a modified aspirator, and released into a perforated container in which the cap containing the treated leaf was placed. The containers were kept in a plant growth chamber at a temperature of 25° C. and a relative humidity of 70%. Observations on dead, moribund and alive adults were recorded 72 h after the release. Percent mortality was calculated by combining dead and moribund adults and comparing the result to the one of the untreated control. The compounds 32 53 58 79 80 81 82 84 87 88 89 94 95 96 101 102 103 104 105 106 107 108 109 112 113 114 115 116 117 118 119 120 123 124 125 126 127 130 135 138 139 140 144 145 147 150 154 156 158 159 164 167 168 169 170 171 188 189 191 198 199 200 201 202 206 207 208 209 210 213 216 223 224 225 227 228 231 232 233 234 235 236 238 242 243 244 246 and 247 recorded≥70 percent mortality @ 300 PPM.

Nilaparvata lugens = Nilaparvata lugens seedling dip test (paddy seedlings, third instar nymphs); conditions: 72 h after release, dead and moribund combined, compared to untreated control, read-out: percent mortality

| Compound | mortality at 300 ppm (Myzus persicae) | mortality at 300 ppm (Bemisia tabaci) | mortality at 300 ppm (Nilaparvata lugens) |
| --- | --- | --- | --- |
| O=c1nc2n(Cc3cnc(Cl)s3)cccc-2c(=O)n1-c1ccc(Cl)cc1 [Compound 80, 3-(4-chlorophenyl)-8-((2-chlorothiazol-5-yl)methyl)pyrido[2,3-d]pyrimidine-2,4(3H,8H)-dione] | ≥ 70% | ≥ 70% | – |
| O=c1nc2n(Cc3cnc(Cl)nc3)cccc-2c(=O)n1-c1ccc(Cl)cc1 [Compound 82, 3-(4-chlorophenyl)-8-((2-chloropyrimidin-5-yl)methyl)pyrido[2,3-d]pyrimidine-2,4(3H,8H)-dione] | ≥ 70% | ≥ 70% | ≥ 70% |
| CC(C)n1c(=O)nc2n(Cc3cnc(Cl)nc3)cccc-2c1=O [Compound 84, 8-((2-chloropyrimidin-5-yl)methyl)-3-isopropylpyrido[2,3-d]pyrimidine-2,4(3H,8H)-dione] | ≥ 70% | ≥ 70% | – |
| O=c1nc2n(Cc3cnc(Cl)s3)cccc-2c(=O)n1-c1cccc(C(F)(F)F)c1 [Compound 88, 8-((2-chlorothiazol-5-yl)methyl)-3-(3-(trifluoromethyl)phenyl)pyrido[2,3-d]pyrimidine-2,4(3H,8H)-dione] | ≥ 70% | ≥ 70% | ≥ 70% |
| Cn1cc(-n2c(=O)nc3n(Cc4cnc(Cl)s4)cccc-3c2=O)cn1 [Compound 89, 8-((2-chlorothiazol-5-yl)methyl)-3-(1-methyl-1H-pyrazol-4-yl)pyrido[2,3-d]pyrimidine-2,4(3H,8H)-dione] | ≥ 70% | ≥ 70% | – |
| O=c1nc2n(Cc3cnc(Cl)nc3)cccc-2c(=O)n1-c1cccc(Cl)c1 [Compound 96, 3-(3-chlorophenyl)-8-((2-chloropyrimidin-5-yl)methyl)pyrido[2,3-d]pyrimidine-2,4(3H,8H)-dione] | ≥ 70% | ≥ 70% | ≥ 70% |
| O=c1nc2n(Cc3ccc(Cl)nc3)cccc-2c(=O)n1-c1cc(C(F)(F)F)cc(C(F)(F)F)c1 [Compound 107, 3-(3,5-bis(trifluoromethyl)phenyl)-8-((6-chloropyridin-3-yl)methyl)pyrido[2,3-d]pyrimidine-2,4(3H,8H)-dione] | ≥ 70% | ≥ 70% | – |
| O=c1nc2n(Cc3ccc(Cl)nc3)cccc-2c(=O)n1-c1cc(Cl)cc(C(F)(F)F)c1 [Compound 109, 3-(3-chloro-5-(trifluoromethyl)phenyl)-8-((6-chloropyridin-3-yl)methyl)pyrido[2,3-d]pyrimidine-2,4(3H,8H)-dione] | ≥ 70% | ≥ 70% | ≥ 70% |
| O=c1nc2n(Cc3cnc(Cl)nc3)cccc-2c(=O)n1-c1ccc(F)cc1 [Compound 117, 8-((2-chloropyrimidin-5-yl)methyl)-3-(4-fluorophenyl)pyrido[2,3-d]pyrimidine-2,4(3H,8H)-dione] | ≥ 70% | ≥ 70% | ≥ 70% |
| O=c1nc2n(Cc3cnc(Cl)nc3)cccc-2c(=O)n1-c1cccc(F)c1 [Compound 118, 8-((2-chloropyrimidin-5-yl)methyl)-3-(3-fluorophenyl)pyrido[2,3-d]pyrimidine-2,4(3H,8H)-dione] | ≥ 70% | ≥ 70% | ≥ 70% |
| O=c1nc2n(Cc3cnc(Cl)nc3)cccc-2c(=O)n1-c1ccc(F)c(F)c1 [Compound 120, 8-((2-chloropyrimidin-5-yl)methyl)-3-(3,4-difluorophenyl)pyrido[2,3-d]pyrimidine-2,4(3H,8H)-dione] | ≥ 70% | ≥ 70% | ≥ 70% |
| O=c1nc2n(Cc3ccc(Cl)nc3)cccc-2c(=O)n1-c1cccc(OC(F)(F)F)c1 [Compound 123, 8-((6-chloropyridin-3-yl)methyl)-3-(3-(trifluoromethoxy)phenyl)pyrido[2,3-d]pyrimidine-2,4(3H,8H)-dione] | ≥ 70% | ≥ 70% | ≥ 70% |
| O=c1nc2n(Cc3ccc(Cl)nc3)cccc-2c(=O)n1-c1ccc(OC(F)(F)F)cc1 [Compound 126, 8-((6-chloropyridin-3-yl)methyl)-3-(4-(trifluoromethoxy)phenyl)pyrido[2,3-d]pyrimidine-2,4(3H,8H)-dione] | ≥ 70% | ≥ 70% | – |
| O=c1nc2n(Cc3cnc(Cl)nc3)cccc-2c(=O)n1-c1cccc(OC(F)(F)F)c1 [Compound 130, 8-((2-chloropyrimidin-5-yl)methyl)-3-(3-(trifluoromethoxy)phenyl)pyrido[2,3-d]pyrimidine-2,4(3H,8H)-dione] | – | ≥ 70% | ≥ 70% |
| O=c1nc2n(Cc3cnc(Cl)nc3)cccc-2c(=O)n1-c1cc(F)cc(F)c1 [Compound 140, 8-((2-chloropyrimidin-5-yl)methyl)-3-(3,5-difluorophenyl)pyrido[2,3-d]pyrimidine-2,4(3H,8H)-dione] | ≥ 70% | ≥ 70% | ≥ 70% |
| O=c1nc2n(Cc3ccc(C(F)(F)F)nc3)cccc-2c(=O)n1-c1ccc(Cl)cc1 [Compound 145, 3-(4-chlorophenyl)-8-((6-(trifluoromethyl)pyridin-3-yl)methyl)pyrido[2,3-d]pyrimidine-2,4(3H,8H)-dione] | – | ≥ 70% | – |
| O=c1nc2n(Cc3cnc(Cl)nc3)cccc-2c(=O)n1-c1ccc(Cl)cc1F [Compound 147, 3-(4-chloro-2-fluorophenyl)-8-((2-chloropyrimidin-5-yl)methyl)pyrido[2,3-d]pyrimidine-2,4(3H,8H)-dione] | – | ≥ 70% | ≥ 70% |
| O=c1nc2n(Cc3cnc(Cl)s3)cccc-2c(=O)n1-c1cccc(OC(F)(F)F)c1 [Compound 150, 8-((2-chlorothiazol-5-yl)methyl)-3-(3-(trifluoromethoxy)phenyl)pyrido[2,3-d]pyrimidine-2,4(3H,8H)-dione] | ≥ 70% | ≥ 70% | ≥ 70% |
| O=c1nc2n(Cc3ccc(C(F)(F)F)nc3)cccc-2c(=O)n1-c1ccc(F)cc1 [Compound 156, 3-(4-fluorophenyl)-8-((6-(trifluoromethyl)pyridin-3-yl)methyl)pyrido[2,3-d]pyrimidine-2,4(3H,8H)-dione] | – | ≥ 70% | – |
| O=c1nc2n(Cc3cnc(Cl)nc3)cccc-2c(=O)n1-c1ccc(Cl)c(Cl)c1 [Compound 158, 8-((2-chloropyrimidin-5-yl)methyl)-3-(3,4-dichlorophenyl)pyrido[2,3-d]pyrimidine-2,4(3H,8H)-dione] | – | ≥ 70% | – |
| COc1cc(-n2c(=O)nc3n(Cc4cnc(Cl)s4)cccc-3c2=O)ccc1Cl [Compound 167, 3-(4-chloro-3-methoxyphenyl)-8-((2-chlorothiazol-5-yl)methyl)pyrido[2,3-d]pyrimidine-2,4(3H,8H)-dione] | – | ≥ 70% | – |
| COc1cc(-n2c(=O)nc3n(Cc4cnc(Cl)nc4)cccc-3c2=O)ccc1Cl [Compound 171, 3-(4-chloro-3-methoxyphenyl)-8-((2-chloropyrimidin-5-yl)methyl)pyrido[2,3-d]pyrimidine-2,4(3H,8H)-dione] | – | ≥ 70% | ≥ 70% |
| O=c1nc2n(Cc3cnc(Cl)nc3)cccc-2c(=O)n1-c1ccccc1F [Compound 200, 8-((2-chloropyrimidin-5-yl)methyl)-3-(2-fluorophenyl)pyrido[2,3-d]pyrimidine-2,4(3H,8H)-dione] | – | ≥ 70% | ≥ 70% |
| O=c1nc2n(Cc3cnc(Cl)nc3)cccc-2c(=O)n1-c1c(F)cccc1F [Compound 206, 8-((2-chloropyrimidin-5-yl)methyl)-3-(2,6-difluorophenyl)pyrido[2,3-d]pyrimidine-2,4(3H,8H)-dione] | – | ≥ 70% | ≥ 70% |
| O=c1c2cccn(Cc3ccc(Cl)nc3)c-2nc(=S)n1-c1ccc(OC(F)(F)F)cc1 [Compound 209, 8-((6-chloropyridin-3-yl)methyl)-2-thioxo-3-(4-(trifluoromethoxy)phenyl)-2,8-dihydropyrido[2,3-d]pyrimidin-4(3H)-one] | – | ≥ 70% | ≥ 70% |
| O=c1nc2n(Cc3cnc(Cl)nc3)cccc-2c(=O)n1-c1ccc(Cl)c(C(F)(F)F)c1 [Compound 224, 3-(4-chloro-3-(trifluoromethyl)phenyl)-8-((2-chloropyrimidin-5-yl)methyl)pyrido[2,3-d]pyrimidine-2,4(3H,8H)-dione] | – | ≥ 70% | ≥ 70% |
| O=c1nc2n(Cc3cnc(Cl)nc3)cccc-2c(=O)n1-c1ccc(OC(F)(F)F)c(Cl)c1 [Compound 227, 3-(3-chloro-4-(trifluoromethoxy)phenyl)-8-((2-chloropyrimidin-5-yl)methyl)pyrido[2,3-d]pyrimidine-2,4(3H,8H)-dione] | – | ≥ 70% | – |
